Experimental data reported in patent publication US12398141B2 (SHANGHAI SYNERGY PHARMACEUTICAL SCIENCES CO., LTD, priority 2019, dated 2025).

Experiments:
Blast T cell = assay: Cell proliferation test of IL-2 stimulated Blast T cell; assay type: cell-based; conditions: Homo sapiens; IL-2 stimulated Blast T cell proliferation, 72 hours
Description: Inhibiting test of the compounds of the invention on proliferation of Blast T cell and TF-1 cell (American type culture collection) was carried out by the following method. The tested compounds […], and […] were dissolved in dimethyl sulfoxide from 0.0006 to 10 μM in quadruplicate dilutions. […] 10 μg/ml […] was added to stimulate and obtain cells with a density of 2×10^6/mL, which were incubated for 3 days. The cells were washed with phosphate buffer for three times and IL-2 (100 u/ml) was added to stimulate for 1 week. Cells were suspended using the culture medium and seeded at 5×10^4 cell/well density into 96-well plates, and incubated for 1 h with the prepared test compound or DMSO control at various concentrations from 0.0006 to 10 μM diluted by 4-fold volume. After incubation with 20 u/ml of IL-2 (50 μl/well without reference well) for 72 hours, Celltiter Glo® reagent (Promega, G7571) was added and mixed for 5 minutes, then incubated for 30 minutes at room temperature. The luminescence value was read on SpectraMax L (Molecular Device). […] The IC50 values of the corresponding compounds were then obtained by fitting by using the XLFit fitting tool in excel.

JAK1 = JAK1 (Homo sapiens (Human), UniProt P23458); assay: JAK1 LANCE Ultra kinase assay; assay type: biochemical; conditions: for IC50: 38 uM ATP; for JAK2/JAK1: ratio of IC50 JAK2 to IC50 JAK1
JAK1, sequence (P23458 whole entry): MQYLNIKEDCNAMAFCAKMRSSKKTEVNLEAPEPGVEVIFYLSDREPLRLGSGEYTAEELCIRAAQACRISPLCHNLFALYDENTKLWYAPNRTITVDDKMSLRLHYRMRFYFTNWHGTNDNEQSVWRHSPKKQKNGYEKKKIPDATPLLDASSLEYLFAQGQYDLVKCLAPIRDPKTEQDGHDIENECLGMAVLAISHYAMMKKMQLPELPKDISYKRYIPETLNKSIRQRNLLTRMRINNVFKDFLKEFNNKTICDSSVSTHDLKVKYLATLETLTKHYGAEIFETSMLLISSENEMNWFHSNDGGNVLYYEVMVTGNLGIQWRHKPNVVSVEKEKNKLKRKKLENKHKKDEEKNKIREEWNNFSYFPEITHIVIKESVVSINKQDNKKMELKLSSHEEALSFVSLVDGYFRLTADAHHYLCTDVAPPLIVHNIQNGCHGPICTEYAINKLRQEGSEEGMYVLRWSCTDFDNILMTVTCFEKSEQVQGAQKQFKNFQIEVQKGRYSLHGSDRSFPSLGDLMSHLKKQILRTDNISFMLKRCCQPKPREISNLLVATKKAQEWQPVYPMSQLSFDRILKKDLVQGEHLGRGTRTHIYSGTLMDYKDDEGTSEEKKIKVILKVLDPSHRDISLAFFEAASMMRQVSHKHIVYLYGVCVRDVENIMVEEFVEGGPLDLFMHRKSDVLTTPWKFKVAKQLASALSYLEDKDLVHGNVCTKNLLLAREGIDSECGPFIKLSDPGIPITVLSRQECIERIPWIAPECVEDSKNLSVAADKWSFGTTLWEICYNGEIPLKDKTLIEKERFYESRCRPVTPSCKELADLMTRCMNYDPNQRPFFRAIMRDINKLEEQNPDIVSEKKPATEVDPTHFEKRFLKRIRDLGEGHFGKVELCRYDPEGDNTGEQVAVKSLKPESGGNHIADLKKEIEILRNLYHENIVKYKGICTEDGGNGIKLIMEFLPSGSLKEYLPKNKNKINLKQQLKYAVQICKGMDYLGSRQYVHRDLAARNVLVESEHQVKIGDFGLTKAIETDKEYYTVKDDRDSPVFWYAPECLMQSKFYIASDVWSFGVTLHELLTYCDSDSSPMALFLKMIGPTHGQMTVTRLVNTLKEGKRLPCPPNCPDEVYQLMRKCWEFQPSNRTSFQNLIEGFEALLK
How it was run: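 JAK1 preincubated with compound 10 min at room temperature, then ULight-JAK-1 peptide/ATP added for 90 min at room temperature; stopped with EDTA, Eu-W1024 anti-phosphotyrosine TR-FRET read after 60 min. Inhibition normalised to DMSO and blank wells; IC50 from curve fit.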

TF-1 cell = TF-1 cell proliferation test; assay type: cell-based; conditions: Homo sapiens, 72 h
Description: Inhibiting test of the compounds of the invention on proliferation of Blast T cell and TF-1 cell (American type culture collection) was carried out by the following method. The tested compounds […], and […] were dissolved in dimethyl sulfoxide from 0.0006 to 10 μM in quadruplicate dilutions. […] The luminescence value was read on Microplate Reader (Molecular Device). […] The IC50 values of the corresponding compounds were then obtained by fitting by using the XLFit fitting tool in excel.

JAK3 = JAK3 (Homo sapiens (Human), UniProt P52333); assay: JAK3 LANCE Ultra kinase assay; assay type: biochemical; conditions: 4 uM ATP
JAK3, sequence (P52333 whole entry): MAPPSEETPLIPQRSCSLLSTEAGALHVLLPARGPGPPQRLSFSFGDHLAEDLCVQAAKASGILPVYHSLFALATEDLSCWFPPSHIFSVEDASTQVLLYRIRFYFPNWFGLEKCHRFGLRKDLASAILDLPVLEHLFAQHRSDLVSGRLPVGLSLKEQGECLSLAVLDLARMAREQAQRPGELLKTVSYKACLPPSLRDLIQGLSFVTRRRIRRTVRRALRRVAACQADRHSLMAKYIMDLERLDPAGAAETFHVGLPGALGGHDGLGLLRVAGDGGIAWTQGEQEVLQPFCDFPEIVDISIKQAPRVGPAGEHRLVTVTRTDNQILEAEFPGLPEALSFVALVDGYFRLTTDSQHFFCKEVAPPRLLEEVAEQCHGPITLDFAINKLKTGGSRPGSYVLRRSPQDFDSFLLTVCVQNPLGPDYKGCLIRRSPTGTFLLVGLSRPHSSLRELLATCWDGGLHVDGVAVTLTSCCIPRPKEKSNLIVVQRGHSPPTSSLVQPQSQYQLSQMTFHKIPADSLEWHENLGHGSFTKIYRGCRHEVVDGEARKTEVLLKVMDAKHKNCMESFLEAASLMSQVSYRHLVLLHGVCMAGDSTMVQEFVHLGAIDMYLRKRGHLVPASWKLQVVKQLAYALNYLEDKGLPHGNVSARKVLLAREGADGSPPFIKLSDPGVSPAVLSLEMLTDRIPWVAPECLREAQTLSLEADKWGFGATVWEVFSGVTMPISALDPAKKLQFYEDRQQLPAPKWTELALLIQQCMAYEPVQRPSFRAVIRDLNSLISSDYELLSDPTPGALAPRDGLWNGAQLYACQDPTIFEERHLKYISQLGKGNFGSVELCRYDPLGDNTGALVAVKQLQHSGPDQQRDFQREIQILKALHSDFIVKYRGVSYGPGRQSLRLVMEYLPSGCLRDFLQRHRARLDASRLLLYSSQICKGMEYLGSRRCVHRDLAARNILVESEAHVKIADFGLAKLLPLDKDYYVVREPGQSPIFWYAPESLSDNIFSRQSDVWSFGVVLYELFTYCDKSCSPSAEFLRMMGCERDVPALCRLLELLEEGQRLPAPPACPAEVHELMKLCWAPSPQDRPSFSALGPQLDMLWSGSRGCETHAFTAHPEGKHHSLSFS

JAK2 = JAK2 (Homo sapiens (Human), UniProt O60674); assay: JAK2 LANCE Ultra kinase assay; assay type: biochemical; conditions: 12 uM ATP
JAK2, sequence (O60674 whole entry): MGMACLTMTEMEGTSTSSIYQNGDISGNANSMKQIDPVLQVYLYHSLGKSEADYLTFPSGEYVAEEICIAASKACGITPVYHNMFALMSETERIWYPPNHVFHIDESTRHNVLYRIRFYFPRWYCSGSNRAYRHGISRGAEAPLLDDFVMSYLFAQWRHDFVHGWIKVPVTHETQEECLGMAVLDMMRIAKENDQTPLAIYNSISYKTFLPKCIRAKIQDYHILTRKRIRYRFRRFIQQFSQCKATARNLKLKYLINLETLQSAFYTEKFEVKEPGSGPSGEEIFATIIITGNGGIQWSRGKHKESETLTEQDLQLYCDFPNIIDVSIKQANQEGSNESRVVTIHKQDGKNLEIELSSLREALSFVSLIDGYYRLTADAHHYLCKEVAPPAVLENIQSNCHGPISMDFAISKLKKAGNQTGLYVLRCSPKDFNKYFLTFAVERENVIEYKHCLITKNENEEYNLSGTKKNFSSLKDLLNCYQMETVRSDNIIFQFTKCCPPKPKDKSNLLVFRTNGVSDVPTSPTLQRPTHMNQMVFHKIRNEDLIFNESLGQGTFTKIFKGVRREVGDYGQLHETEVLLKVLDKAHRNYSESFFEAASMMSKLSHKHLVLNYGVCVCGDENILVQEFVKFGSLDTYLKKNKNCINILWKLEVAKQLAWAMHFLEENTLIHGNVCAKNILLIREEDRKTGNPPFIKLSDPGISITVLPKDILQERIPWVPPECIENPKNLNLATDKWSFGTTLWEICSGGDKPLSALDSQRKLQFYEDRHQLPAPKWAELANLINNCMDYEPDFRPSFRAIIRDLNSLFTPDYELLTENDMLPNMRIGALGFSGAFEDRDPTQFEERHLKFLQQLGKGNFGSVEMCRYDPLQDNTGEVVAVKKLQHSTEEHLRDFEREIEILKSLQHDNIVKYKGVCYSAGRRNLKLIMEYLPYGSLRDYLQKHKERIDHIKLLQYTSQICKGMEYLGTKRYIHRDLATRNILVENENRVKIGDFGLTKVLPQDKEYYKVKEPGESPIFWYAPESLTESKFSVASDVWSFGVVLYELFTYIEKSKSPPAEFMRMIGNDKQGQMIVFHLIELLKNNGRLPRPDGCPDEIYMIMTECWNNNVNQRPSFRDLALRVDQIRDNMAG

IC50 (JAK1) [nM]	IC50 (JAK3) [nM]	IC50 (JAK2) [nM]	JAK2/JAK1 (JAK1)	SMILES	IC50 (Blast T cell) [µM]	IC50 (TF-1 cell) [µM]
2.6	144	15.6	6.00	C[C@@H]1CN(C(=O)NCC(F)(F)F)C[C@@H]1Nc1c(C#N)cnc2[nH]ccc12 [Compound H40]	0.036	1.24
5.8	40	16	2.76	CN(c1c(C#N)cnc2[nH]ccc12)[C@H]1CC[C@H](CS(=O)(=O)N2CCC(C)(O)C2)CC1 (stereo partly drawn) [Compound H62]	0.029	1.32
6.7	47	13.9	2.07	COCCOC1CCCN(S(=O)(=O)C[C@H]2CC[C@@H](N(C)c3c(C#N)cnc4[nH]ccc34)C2)C1 (stereo partly drawn) [Compound H70]	0.048	1.53

The next lines start with the compound.

SMILES	IC50 (JAK1) [nM]	IC50 (JAK3) [nM]	IC50 (JAK2) [nM]	JAK2/JAK1 (JAK1)	IC50 (Blast T cell) [µM]	IC50 (TF-1 cell) [µM]
CN(c1c(C#N)cnc2[nH]ccc12)[C@H]1C[C@@H](NS(=O)(=O)c2cccc(C(F)(F)F)c2)C1 [Compound H09, 4-{[3-(3-(trifluoromethyl)benzenesulfonamido)-cyclobutyl-1-yl]-methyl-amino}-1H-pyrrolo[2,3-b]pyridin-5-carbonitrile]	3.86	156	26.5		0.036	1.56
CN(c1c(C#N)cnc2[nH]ccc12)[C@H]1C[C@@H](NS(=O)(=O)c2cccc3nonc23)C1 [Compound H18, (cis)-4-{[3-(benzo[c][1,2,5]oxadiazole-4-sulfonamido)-cyclobutyl-1-yl]-methyl-amino}-1H-pyrrolo[2,3-b]pyridin-5-carbonitrile]	0.65	40	5.7		0.04	1.56
CN(c1c(C#N)cnc2[nH]ccc12)[C@H]1C[C@@H]2CN(C(=O)Nc3nc(C4CC4)ns3)C[C@@H]2C1 [Compound H26, (3aR,5s,6aS)-5-((5-cyano-1H-pyrrolo[2,3-b]pyridin-4-yl)(methyl)amino)-N-(3-cyclopropyl-1,2,4-thiadiazole-5-yl)hexahydrocyclopentadiene[c]pyrrole-2(1H)-carboxamide]	2.6	101	18	6.92	0.027	1.98
COc1noc(NC(=O)N2C[C@H]3C[C@H](N(C)c4c(C#N)cnc5[nH]ccc45)C[C@H]3C2)n1 [Compound H43, (3aR,5s,6aS)-5-((5-cyano-1H-pyrrolo[2,3-b]pyridin-4-yl)(methyl)amino)-N-(3-methoxy-1,2,4-oxadiazole-5-yl)hexahydrocyclopentadiene[c]pyrrole-2(1H)-carboxamide]	2.4	125	20	8.33	0.043	1.44
COc1nsc(NC(=O)N2C[C@H]3C[C@H](Nc4c(C(F)(F)F)cnc5[nH]ccc45)C[C@H]3C2)n1 [Compound H50, (3aR,5s,6aS)-5-((5-trifluoromethyl-1H-pyrrolo[2,3-b]pyridin-4-yl)amino)-N-(3-methoxy-1,2,4-thiadiazole-5-yl)hexahydrocyclopentadiene[c]pyrrole-2(1H)-carboxamide]	4.65	137	33		0.034	0.85
